Measured values as given in ChEMBL document CHEMBL4622980, “Peptide Inhibitors of Bacterial Protein Synthesis with Broad Spectrum and SbmA-Independent Bactericidal Activity against Clinical Pathogens” (J Med Chem, 2020).
Active and inactive are the calls of the source. The calls are words filed in the database; no cut-off is given here.

Assays:
Escherichia coli [1] = experiment: Induction of membrane permeabilization in Escherichia coli BW25113 at 1 uM incubated for 30 mins by ONPG/beta-galactosidase assay; format: functional, organism-based
Escherichia coli [2] = experiment: Ratio of MIC for antibacterial activity against Escherichia coli BW25113 expressing delta sbmA mutation to MIC for antibacterial activity against wild type Escherichia coli BW25113; format: functional
Escherichia coli [3] = experiment: Bactericidal activity against Escherichia coli ATCC 25922 assessed as prevention visible bacterial growth incubated for 18 hrs; format: functional; conditions: ATCC 25922, 18 h
Escherichia coli [4] = experiment: Antibacterial activity against Escherichia coli BW25113 expressing delta sbmA mutation assessed as prevention visible bacterial growth incubated for 18 hrs; format: functional; conditions: BW25113, 18 h
Staphylococcus aureus [5] = experiment: Bactericidal activity against Staphylococcus aureus ATCC 25923 assessed as prevention visible bacterial growth incubated for 18 hrs; format: functional; conditions: ATCC 25923, 18 h
Escherichia coli [6] = experiment: Ratio of MBC for antibacterial activity against Escherichia coli BW25113 expressing delta sbmA mutation to MBC for antibacterial activity against wild type Escherichia coli BW25113; format: functional
Klebsiella pneumoniae [7] = experiment: Antibacterial activity against Klebsiella pneumoniae 700603 assessed as prevention visible bacterial growth incubated for 18 hrs; format: functional; conditions: Klebsiella pneumoniae, 700603, 18 h
Escherichia coli [8] = experiment: Antibacterial activity against Escherichia coli ATCC 25922 assessed as prevention visible bacterial growth incubated for 18 hrs; format: functional; conditions: ATCC 25922, 18 h
Escherichia coli [9] = experiment: Induction of membrane permeabilization in Escherichia coli BW25113 at 8 to 16 uM incubated for 30 mins by propidium iodide uptake based flow cytometry; format: functional, organism-based
Escherichia coli [10] = experiment: Induction of membrane permeabilization in Escherichia coli BW25113 at 16 uM incubated for 30 mins by ONPG/beta-galactosidase assay relative to 1 uM colistin; format: functional
Escherichia coli [11] = experiment: Inhibition of in-vitro transcription/translation in Escherichia coli lysates at 1 uM incubated for 1 hr by luciferase reporter gene assay relative to control; format: functional
Staphylococcus aureus [12] = experiment: Antibacterial activity against Staphylococcus aureus ATCC 25923 assessed as prevention visible bacterial growth incubated for 18 hrs; format: functional; conditions: ATCC 25923, 18 h
Escherichia coli [13] = experiment: Antibacterial activity against Escherichia coli ATCC 25922 assessed as prevention visible bacterial growth incubated for 18 hrs in presence of 10% (v/v) human serum in full MH medium; format: functional; conditions: ATCC 25922, 18 h
Acinetobacter baumannii [14] = experiment: Antibacterial activity against Acinetobacter baumannii ATCC 19606 assessed as prevention visible bacterial growth incubated for 18 hrs; format: functional; conditions: ATCC 19606 = CIP 70.34 = JCM 6841, 18 h
Escherichia coli [15] = experiment: Induction of membrane permeabilization in Escherichia coli BW25113 at 8 to 16 uM incubated for 30 mins by ONPG/beta-galactosidase assay; format: functional, organism-based
Escherichia coli [16] = experiment: Bactericidal activity against Escherichia coli BW25113 expressing delta sbmA mutation assessed as prevention visible bacterial growth incubated for 18 hrs; format: functional; conditions: BW25113, 18 h
Escherichia coli [17] = experiment: Antibacterial activity against Escherichia coli clinical isolates assessed as prevention visible bacterial growth incubated for 18 hrs; format: functional
Acinetobacter baumannii [18] = experiment: Bactericidal activity against Acinetobacter baumannii ATCC 19606 assessed as prevention visible bacterial growth incubated for 18 hrs; format: functional; conditions: ATCC 19606 = CIP 70.34 = JCM 6841, 18 h
Klebsiella pneumoniae [19] = experiment: Bactericidal activity against Klebsiella pneumoniae 700603 assessed as prevention visible bacterial growth incubated for 18 hrs; format: functional; conditions: Klebsiella pneumoniae, 700603, 18 h
Pseudomonas aeruginosa [20] = experiment: Bactericidal activity against Pseudomonas aeruginosa ATCC 27853 assessed as prevention visible bacterial growth incubated for 18 hrs; format: functional; conditions: ATCC 27853, 18 h
Pseudomonas aeruginosa [21] = experiment: Antibacterial activity against Pseudomonas aeruginosa ATCC 27853 assessed as prevention visible bacterial growth incubated for 18 hrs; format: functional; conditions: ATCC 27853, 18 h
Escherichia coli [22] = experiment: Induction of membrane permeabilization in Escherichia coli BW25113 at 1 to 2 uM incubated for 30 mins by ONPG/beta-galactosidase assay; format: functional, organism-based
Escherichia coli [23] = experiment: Antibacterial activity against Escherichia coli BW25113 assessed as prevention visible bacterial growth incubated for 18 hrs; format: functional; conditions: BW25113, 18 h
[24] = Cytotoxicity in human MEC1 cells assessed as reduction in cell viability incubated for 20 hrs by MTT assay; format: cell-based
Escherichia coli [25] = experiment: Bactericidal activity against Escherichia coli BW25113 assessed as prevention visible bacterial growth incubated for 18 hrs; format: functional; conditions: BW25113, 18 h
Escherichia coli [26] = experiment: Induction of membrane permeabilization in Escherichia coli BW25113 at 1 to 16 uM incubated for 30 mins by ONPG/beta-galactosidase assay; format: functional, organism-based
Escherichia coli [27] = experiment: Induction of membrane permeabilization in Escherichia coli BW25113 at 1 to 16 uM incubated for 30 mins by propidium iodide uptake based flow cytometry; format: functional, organism-based
Escherichia coli [28] = experiment: Induction of membrane permeabilization in Escherichia coli BW25113 at 4 uM incubated for 30 mins by propidium iodide uptake based flow cytometry; format: functional, organism-based
Escherichia coli [29] = experiment: Antibacterial activity against Escherichia coli isolate EURL-VTEC C07 assessed as prevention visible bacterial growth incubated for 18 hrs; format: functional; conditions: isolate EURL-VTEC C07, 18 h
Escherichia coli [30] = experiment: Induction of membrane permeabilization in Escherichia coli BW25113 at 4 uM incubated for 30 mins by ONPG/beta-galactosidase assay; format: functional, organism-based

Substance | Ratio (Escherichia coli [2]) | MBC (Escherichia coli [3]) | MIC99 (Escherichia coli [4]) | MBC (Staphylococcus aureus [5]) | MIC99 (Klebsiella pneumoniae [7]) | MIC99 (Escherichia coli [8]) | inhibition (Escherichia coli [11]) | MIC99 (Staphylococcus aureus [12]) | MIC (Escherichia coli [13]) | MIC99 (Acinetobacter baumannii [14]) | MBC (Escherichia coli [16]) | MIC99 (Escherichia coli [17]) | MBC (Acinetobacter baumannii [18]) | MBC (Klebsiella pneumoniae [19]) | MBC (Pseudomonas aeruginosa [20]) | MIC99 (Pseudomonas aeruginosa [21]) | Activity (Escherichia coli [22]) | MIC99 (Escherichia coli [23]) | CC50 at 20 h [24] | MBC (Escherichia coli [25]) | also measured
COLISTIN |  |  |  |  |  |  |  |  |  |  |  |  |  |  |  |  |  |  |  |  | Activity (Escherichia coli [1]): Active
H-WRIRRRPPRLPRPRWR-OH | 2 - 4 | 2 µM | 3 µM | > 64 µM | 4 µM | 1 µM | Active | 32 µM | 6 µM | 32 µM | 4 µM | > 1 µM | 32 µM | 32 µM | 64 µM | 64 µM | inactive | 1 µM | > 64 µM | 8 µM | Ratio (Escherichia coli [6]): 2 - 4; Activity (Escherichia coli [9]): Active; Activity (Escherichia coli [10]): 30%; Activity (Escherichia coli [15]): Active
H-WRIRPRPPRLPRPRPR-OH |  | 2 µM | 12 µM | > 64 µM | 16 µM | 1 µM | Active | > 64 µM | 1 µM | 32 µM | 32 µM | > 1 µM | 64 µM | 64 µM | > 64 µM | > 64 µM | inactive | 1 to 2 µM | > 64 µM | 1 µM | Activity (Escherichia coli [26]): inactive; Activity (Escherichia coli [27]): inactive
H-WRIRRRWPRLPRPRWR-OH | 2 - 4 | 2 µM | 4 µM | > 64 µM | 2 µM | 1 µM | Active | 12 µM | 3 µM | 4 µM | 4 µM | > 1 µM | 8 µM | 8 µM | > 64 µM | 32 µM | inactive | 2 µM | > 64 µM | 4 µM | Ratio (Escherichia coli [6]): 2 - 4; Activity (Escherichia coli [28]): Active; Activity (Escherichia coli [9]): Active; Activity (Escherichia coli [10]): 30%; MIC99 (Escherichia coli [29]): 2 µM; Activity (Escherichia coli [15]): Active; Activity (Escherichia coli [30]): Active
H-RRIRPRPPRLPRPRWR-OH | 2 - 4 | 2 µM | 4 µM | > 64 µM | 2 µM | 1 µM | Active | > 64 µM | 1.5 µM | 12 µM | 16 µM | > 1 µM | 24 µM | 16 µM | 32 µM | > 64 µM | inactive | 1 to 4 µM | > 64 µM | 8 µM | Ratio (Escherichia coli [6]): 2 - 4; Activity (Escherichia coli [26]): inactive; Activity (Escherichia coli [27]): inactive
